Measurements published in patent publication US6048884A, “Amide derivatives and medicinal compositions thereof” (Yamanouchi Pharmaceutical Co., Ltd., priority 1997, dated 2000).
Counter-ions that a name gives are not always drawn.

What was measured:
[1] = test system: kk mice (insulin-resisting model: obesity and hyperglycemia); test: Hypoglycemic test in kk mice (insulin sensitivity potentiating action); format: in vivo; conditions: oral administration of 10 mg/kg once daily for four days; blood sugar 15 to 18 hours after final administration vs level prior to administration; male kk mice, n=6; p<0.01
Procedure: 1. Hypoglycemic test in kk mice (insulin-resisting model: obesity and hyperglycemia) [insulin sensitivity potentiating action]:
Blood sugar levels under feeding were measured for male kk mice (sugar blood level being 200 mg/dl or more) and they were randomly divided into several groups. The drug to be tested was compulsorily administered per os once daily for four days and the blood sugar level after 15 to 18 hours from the final administration was compared with the level prior to the administration (n=6), whereupon a hypoglycemic rate (%) was calculated. Blood was collected from tail vein of the mouse using a glass capillary (previously treated with heparin), protein was removed therefrom and the amount of glucose (mg/dl) in the supernatant liquid was calorimetrically determined by a glucose oxidase method to obtain the blood sugar level.

[2] = test system: normal rats (male rats of SD-strain); test: Sugar tolerance test in normal rats (OGTT; insulin secretion promoting action); format: in vivo; conditions: 10 mg/kg orally 30 minutes before glucose 2 g/kg per os; fasted male SD rats, n=4
Procedure: 2. Sugar tolerance test in normal rats [insulin secretion promoting action]:
Male rats of SD-strain (seven weeks age) were fasted for one night and day, randomly divided into several groups and subjected to an oral glucose tolerance test (OGTT) (n=4). The compound to be tested was orally administered at 30 minutes before administration of glucose (2 g/kg per os). Blood was collected by a heparin-treated glass syringe from abdominal artery of the rat under anesthetization with 65 mg/kg of pentbarbital, protein was removed therefrom and the amount of glucose (mg/dl) in the supernatant liquid was calorimetrically determined by a glucose oxidase method to obtain the blood sugar level. Insulin level in blood was determined by measuring the amount of insulin (ng/ml) in plasma by means of a radio-immunoassay (RIA). The result was that, when 10 mg/kg of the compound of Example 4 was administered, insulin secretion increased to an extent of three-fold in terms of AUC ratio and blood sugar level decreased to 90% as compared with that prior to the administration.

Structure (SMILES) | hypoglycemic rate [1] [%] | blood sugar level decreased to, as compared with that prior to the administration [2] [%] | insulin secretion increase in terms of AUC ratio (plasma insulin, RIA) [2]
O=C(Cc1csc(NCc2ccccc2)n1)Nc1ccc(CCNC[C@H](O)COc2ccccc2)cc1 [Example 1, (S)-2-(2-benzylamino-4-thiazolyl)-4'-[2-[(2-hydroxy-3-phenoxypropyl)amino]ethyl]acetanilide] | 47 |  | 
O=C(Cc1csc(Nc2cccc(F)c2)n1)Nc1ccc(CCNC[C@H](O)COc2ccccc2)cc1 [Example 2-b, (S)-2-[2-(3-fluoroanilino)-4-thiazol-4-yl)-4'-[2-[(2-hydroxy-3-phenoxypropyl)amino]ethyl]acetanilide] | 52 |  | 
CC(Cc1ccc(NC(=O)Cc2csc(Nc3ccccc3)n2)cc1)NC[C@H](O)COc1ccccc1 (stereo partly drawn) [Example 2-c, (S)-2-(2-anilino-4-thiazol-4-yl)-4'-{2-[(-2-hydroxy-3-phenoxypropyl)amino]propyl}acetanilide] | 50 |  | 
O=C(Cc1csc(Nc2ccccc2)n1)Nc1ccc(CCNC[C@H](O)COc2ccccc2)cc1 [Example 4, (S)-2-(2-phenylaminothiazol-4-yl)-4'-[2-[(2-hydroxy-3-phenoxyethyl)amino]ethyl]acetanilide dihydrochloride] | 56 | 90 | three-fold
